Read-outs that look alike come from different tables or passages of the source.
Tested on: Pyricularia oryzae
Type: in vivo
Conditions: individual active compound, protective, inoculated next day, assessed after 6 days

CC1CCN(c2c(-c3c(F)cccc3Cl)c(Cl)nc3ncnn23)CC1 [A]
Efficacy in % of the untreated control (1 ppm in the spray liquor): 0% | Efficacy in % of the untreated control (4 ppm in the spray liquor): 13%

C[C@H](Nc1c(-c2c(F)cc(F)cc2F)c(Cl)nc2ncnn12)C(F)(F)F [B]
Efficacy in % of the untreated control (1 ppm in the spray liquor): 13% | Efficacy in % of the untreated control (4 ppm in the spray liquor): 57%

CC1CCN(c2c(-c3c(F)cc(F)cc3F)c(Cl)nc3ncnn23)CC1 [compound I, 5-chloro-7-(4-methylpiperidin-1-yl)-6-(2,4,6-trifluorophenyl)-[1,2,4]tri-azolo[1,5-a]pyrimidine]
Efficacy in % of the untreated control (1 ppm in the spray liquor): 13% | Efficacy in % of the untreated control (4 ppm in the spray liquor): 28%

C=CC1(C)OC(=O)N(c2cc(Cl)cc(Cl)c2)C1=O (centres unmarked) [compound II, 3-(3,5-dichlorophenyl)-5-methyl-5-vinyloxazolidine-2,4-dione]
Efficacy in % of the untreated control (1 ppm in the spray liquor): 0% | Efficacy in % of the untreated control (4 ppm in the spray liquor): 0%
